Measured values published in ChEMBL document CHEMBL1201862, “PubChem BioAssay data set” (2004).
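Tested at 5 concentrations; 48 h exposure; 96-well plates; endpoints linearly interpolated, else capped at highest concentration. GI50 marks 50% less growth.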 Calls of active or inactive are those of the source. Cut-off read from the data, not from the text of the source: active = GI50 up to about 1.1 µM and inactive = higher.

How the values were obtained:
Test in all cases: growth of human tumour cells (NCI), 48 h
DMS-114 = test system: DMS-114
A549 = test system: A549
RXF 393 = test system: RXF 393
OVCAR-4 = test system: OVCAR-4
KM12 = test system: KM12
SNB-75 = test system: SNB-75
HOP-62 = test system: HOP-62
COLO 205 = test system: COLO 205
RPMI-8226 = test system: RPMI-8226
NCI-H522 = test system: NCI-H522
SNB-19 = test system: SNB-19
Malme-3M = test system: Malme-3M
UACC-62 = test system: UACC-62
SW-620 = test system: SW-620
SK-MEL-28 = test system: SK-MEL-28
A498 = test system: A498
CCRF-CEM = test system: CCRF-CEM

For `O=C1[C@@H]2C(c3ccccc3[N+](=O)[O-])=[N+](c3ccccc3)O[C@@H]2C(=O)N1c1ccc(Cc2ccc(N3C(=O)[C@H]4C(c5ccccc5[N+](=O)[O-])=[N+](c5ccccc5)O[C@H]4C3=O)cc2)cc1`, the GI50 (DMS-114) was > 100 µM (inactive), the GI50 (A549) was > 100 µM (inactive) and the GI50 (RXF 393) was > 100 µM (inactive). The GI50 (OVCAR-4) was > 100 µM (inactive), the GI50 (KM12) was > 100 µM (inactive) and the GI50 (SNB-75) was > 100 µM (inactive). For the same molecule, the GI50 (HOP-62) was > 100 µM (inactive), the GI50 (COLO 205) was 33.4 µM (inactive) and the GI50 (RPMI-8226) was > 100 µM (inactive). For the same molecule, the GI50 (NCI-H522) was > 100 µM (inactive), the GI50 (SNB-19) was > 100 µM (inactive) and the GI50 (Malme-3M) was 27.7 µM (inactive). For the same molecule, the GI50 (UACC-62) was 67.6 µM (inactive), the GI50 (SW-620) was > 100 µM (inactive) and the GI50 (SK-MEL-28) was > 100 µM (inactive). For the same molecule, the GI50 (A498) was > 100 µM (inactive) and the GI50 (CCRF-CEM) was > 100 µM (inactive).
For `COc1cc([C@@H]2c3cc4c(cc3[C@@H](NC(=O)c3ccc(C#N)cc3)C3COC(=O)[C@@H]32)OCO4)cc(OC)c1O` (stereo not given in full), the GI50 (DMS-114) was 0.315 µM (active), the GI50 (A549) was < 0.01 µM (active) and the GI50 (RXF 393) was 1.97 µM (inactive). For the same molecule, the GI50 (OVCAR-4) was 8.93 µM (inactive), the GI50 (KM12) was 1.02 µM (active) and the GI50 (SNB-75) was 0.673 µM (active). The GI50 (HOP-62) was 0.113 µM (active), the GI50 (COLO 205) was 2.94 µM (inactive) and the GI50 (RPMI-8226) was 2.84 µM (inactive). The GI50 (NCI-H522) was 0.451 µM (active), the GI50 (SNB-19) was 0.348 µM (active) and the GI50 (Malme-3M) was 0.355 µM (active). For the same molecule, the GI50 (UACC-62) was 0.316 µM (active), the GI50 (SW-620) was 0.331 µM (active) and the GI50 (SK-MEL-28) was 2.43 µM (inactive). For the same molecule, the GI50 (A498) was 1.02 µM (active) and the GI50 (CCRF-CEM) was 0.0803 µM (active).
With `O=C(CSc1nnc(Cc2ccccc2)o1)Nc1ccc([N+](=O)[O-])cc1` the GI50 (DMS-114) was 22.4 µM (inactive), the GI50 (A549) was 59.4 µM (inactive) and the GI50 (RXF 393) was > 100 µM (inactive). The GI50 (OVCAR-4) was > 100 µM (inactive), the GI50 (KM12) was > 100 µM (inactive) and the GI50 (SNB-75) was > 100 µM (inactive). The GI50 (HOP-62) was > 100 µM (inactive), the GI50 (COLO 205) was > 100 µM (inactive) and the GI50 (RPMI-8226) was > 100 µM (inactive). The GI50 (NCI-H522) was 82.2 µM (inactive), the GI50 (Malme-3M) was > 100 µM (inactive) and the GI50 (UACC-62) was > 100 µM (inactive). For the same molecule, the GI50 (SK-MEL-28) was > 100 µM (inactive), the GI50 (A498) was > 100 µM (inactive) and the GI50 (CCRF-CEM) was > 100 µM (inactive).
With `O=C(Nc1ccc(Cl)c(C(F)(F)F)c1)C(=O)C(C(=O)/C=C/c1ccccc1)C1OC(=O)c2ccccc21` (stereo not given) the GI50 (DMS-114) was 66.5 µM (inactive), the GI50 (A549) was > 100 µM (inactive) and the GI50 (RXF 393) was 93.5 µM (inactive). For the same molecule, the GI50 (OVCAR-4) was > 100 µM (inactive), the GI50 (KM12) was > 100 µM (inactive) and the GI50 (SNB-75) was > 100 µM (inactive). For the same molecule, the GI50 (HOP-62) was > 100 µM (inactive), the GI50 (COLO 205) was > 100 µM (inactive) and the GI50 (RPMI-8226) was 72.8 µM (inactive). For the same molecule, the GI50 (NCI-H522) was 63.1 µM (inactive), the GI50 (SNB-19) was > 100 µM (inactive) and the GI50 (Malme-3M) was > 100 µM (inactive). The GI50 (UACC-62) was 71.1 µM (inactive), the GI50 (SW-620) was > 100 µM (inactive) and the GI50 (A498) was > 100 µM (inactive). For the same molecule, the GI50 (CCRF-CEM) was > 100 µM (inactive).
`FC(F)(F)c1nc(-c2ccccc2)oc1Sc1oc(-c2ccccc2)nc1C(F)(F)F` was tested, and the GI50 (DMS-114) was 40.3 µM (inactive), the GI50 (A549) was > 100 µM (inactive) and the GI50 (RXF 393) was 24.7 µM (inactive). For the same molecule, the GI50 (OVCAR-4) was 19.7 µM (inactive), the GI50 (KM12) was > 100 µM (inactive) and the GI50 (SNB-75) was 29.7 µM (inactive). The GI50 (HOP-62) was 58.7 µM (inactive), the GI50 (COLO 205) was > 100 µM (inactive) and the GI50 (RPMI-8226) was 93.3 µM (inactive). For the same molecule, the GI50 (NCI-H522) was 45.8 µM (inactive), the GI50 (SNB-19) was 87.3 µM (inactive) and the GI50 (Malme-3M) was > 100 µM (inactive). The GI50 (UACC-62) was > 100 µM (inactive), the GI50 (SW-620) was > 100 µM (inactive) and the GI50 (A498) was > 100 µM (inactive). For the same molecule, the GI50 (CCRF-CEM) was > 100 µM (inactive).
For `Cn1cc2c(n1)c(N/N=C/c1ccccc1)nn1nnnc21`, the GI50 (DMS-114) was > 100 µM (inactive), the GI50 (A549) was > 100 µM (inactive) and the GI50 (RXF 393) was > 100 µM (inactive). For the same molecule, the GI50 (OVCAR-4) was > 100 µM (inactive), the GI50 (SNB-75) was > 100 µM (inactive) and the GI50 (HOP-62) was > 100 µM (inactive). For the same molecule, the GI50 (COLO 205) was > 100 µM (inactive), the GI50 (RPMI-8226) was > 100 µM (inactive) and the GI50 (SNB-19) was > 100 µM (inactive). For the same molecule, the GI50 (Malme-3M) was > 100 µM (inactive), the GI50 (UACC-62) was > 100 µM (inactive) and the GI50 (SW-620) was > 100 µM (inactive). The GI50 (SK-MEL-28) was > 100 µM (inactive), the GI50 (A498) was > 100 µM (inactive) and the GI50 (CCRF-CEM) was > 100 µM (inactive).
With `O=[N+]([O-])c1ccc(Cc2nc3ccccc3s2)cc1` the GI50 (DMS-114) was 39.5 µM (inactive), the GI50 (A549) was > 100 µM (inactive) and the GI50 (RXF 393) was > 100 µM (inactive). The GI50 (OVCAR-4) was > 100 µM (inactive), the GI50 (KM12) was > 100 µM (inactive) and the GI50 (SNB-75) was > 100 µM (inactive). For the same molecule, the GI50 (HOP-62) was > 100 µM (inactive), the GI50 (COLO 205) was > 100 µM (inactive) and the GI50 (RPMI-8226) was 49.4 µM (inactive). For the same molecule, the GI50 (NCI-H522) was 60.4 µM (inactive), the GI50 (SNB-19) was > 100 µM (inactive) and the GI50 (Malme-3M) was > 100 µM (inactive). For the same molecule, the GI50 (UACC-62) was 68.1 µM (inactive), the GI50 (SW-620) was 59.3 µM (inactive) and the GI50 (SK-MEL-28) was > 100 µM (inactive). The GI50 (A498) was > 100 µM (inactive) and the GI50 (CCRF-CEM) was 33.3 µM (inactive).
In the case of `CS/C(=C(\S)c1ccccc1)c1ccccc1`, the GI50 (DMS-114) is reported as > 100 µM (inactive), the GI50 (A549) is reported as > 100 µM (inactive) and the GI50 (RXF 393) is reported as > 91.2 µM (inactive). The GI50 (OVCAR-4) was > 87.1 µM (inactive), the GI50 (KM12) was > 100 µM (inactive) and the GI50 (SNB-75) was > 100 µM (inactive). The GI50 (HOP-62) was > 100 µM (inactive), the GI50 (COLO 205) was > 100 µM (inactive) and the GI50 (RPMI-8226) was > 100 µM (inactive). The GI50 (NCI-H522) was > 100 µM (inactive), the GI50 (SNB-19) was > 100 µM (inactive) and the GI50 (Malme-3M) was > 100 µM (inactive). For the same molecule, the GI50 (UACC-62) was > 100 µM (inactive), the GI50 (SW-620) was > 100 µM (inactive) and the GI50 (SK-MEL-28) was > 100 µM (inactive). For the same molecule, the GI50 (A498) was > 100 µM (inactive).
For `O=c1c2ccccc2nc(-c2ccccc2)n1NC(=S)Nc1cccc(Cl)c1`, the GI50 (DMS-114) was 67.3 µM (inactive), the GI50 (A549) was > 100 µM (inactive) and the GI50 (RXF 393) was 27.2 µM (inactive). For the same molecule, the GI50 (OVCAR-4) was > 100 µM (inactive), the GI50 (KM12) was > 100 µM (inactive) and the GI50 (SNB-75) was 28.4 µM (inactive). For the same molecule, the GI50 (HOP-62) was 60.3 µM (inactive), the GI50 (COLO 205) was > 100 µM (inactive) and the GI50 (RPMI-8226) was > 100 µM (inactive). The GI50 (NCI-H522) was 46.7 µM (inactive), the GI50 (Malme-3M) was > 100 µM (inactive) and the GI50 (UACC-62) was 75 µM (inactive). For the same molecule, the GI50 (SW-620) was > 100 µM (inactive), the GI50 (SK-MEL-28) was > 100 µM (inactive) and the GI50 (A498) was > 100 µM (inactive). The GI50 (CCRF-CEM) was > 100 µM (inactive).
